Measurements published in ChEMBL document CHEMBL2202953, “Structure-based redesign of an edema toxin inhibitor” (Bioorg Med Chem, 2012).
pIC50: −log10 of the molar value.

How the values were obtained:
[1] = molecular target: T1, Calmodulin-sensitive adenylate cyclase (Bacillus anthracis, UniProt P40136); assay type: cell-based, RAW264.7
T1 sequence (P40136 whole entry): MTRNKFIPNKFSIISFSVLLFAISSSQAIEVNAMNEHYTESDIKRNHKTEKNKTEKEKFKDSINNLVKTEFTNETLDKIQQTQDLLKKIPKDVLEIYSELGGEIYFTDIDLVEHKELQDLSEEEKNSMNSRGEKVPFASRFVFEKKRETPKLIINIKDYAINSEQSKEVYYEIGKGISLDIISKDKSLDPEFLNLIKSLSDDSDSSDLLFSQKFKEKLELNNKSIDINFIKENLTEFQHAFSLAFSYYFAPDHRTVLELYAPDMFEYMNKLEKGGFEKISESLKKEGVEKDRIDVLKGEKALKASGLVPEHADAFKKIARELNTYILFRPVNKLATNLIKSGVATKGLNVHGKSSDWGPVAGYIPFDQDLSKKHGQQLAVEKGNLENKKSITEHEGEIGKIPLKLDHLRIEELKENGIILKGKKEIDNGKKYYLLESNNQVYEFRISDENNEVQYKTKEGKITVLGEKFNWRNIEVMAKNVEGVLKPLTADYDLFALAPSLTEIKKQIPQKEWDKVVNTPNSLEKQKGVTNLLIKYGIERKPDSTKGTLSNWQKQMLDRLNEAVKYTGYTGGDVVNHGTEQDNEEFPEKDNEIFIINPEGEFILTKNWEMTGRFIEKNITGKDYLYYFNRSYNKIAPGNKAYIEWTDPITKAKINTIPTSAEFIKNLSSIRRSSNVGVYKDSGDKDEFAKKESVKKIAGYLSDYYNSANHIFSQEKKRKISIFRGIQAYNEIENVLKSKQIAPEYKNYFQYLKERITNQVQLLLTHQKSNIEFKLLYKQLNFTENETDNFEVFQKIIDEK

[2] = test system: Salmonella typhimurium; assay: Mutagenicity in Salmonella typhimurium TAMix at 0.975 ug/mL to 1000 ug/mL after 48 hrs in absence of liver S9 fraction by Ames test; assay type: toxicity, organism-based; details: salmonella enterica subsp. enterica serovar typhimurium
[3] = test system: Salmonella typhimurium; assay: Mutagenicity in Salmonella typhimurium TA98 at 0.975 ug/mL to 1000 ug/mL after 48 hrs in presence of liver S9 fraction by Ames test; assay type: toxicity, organism-based; details: salmonella enterica subsp. enterica serovar typhimurium, s9, 48 h
[4] = Genotoxicity against human GenM-T01 cells assessed as induction of GFP expression after 48 hrs by GADD45alpha-GFP assay; assay type: toxicity, cell-based; details: genm-t01, 48 h
[5] = Cytotoxic activity against human GenM-C01 cells after 48 hrs; assay type: cell-based; details: genm-c01, 48 h
[6] = Cytotoxic activity against human GenM-T01 cells after 24 hrs; assay type: cell-based; details: genm-t01, 24 h
[7] = test system: Salmonella typhimurium; assay: Mutagenicity in Salmonella typhimurium TA98 at 0.975 ug/mL to 1000 ug/mL after 48 hrs in absence of liver S9 fraction by Ames test; assay type: toxicity, organism-based; details: salmonella enterica subsp. enterica serovar typhimurium
[8] = Genotoxicity against human GenM-T01 cells assessed as induction of GFP expression after 24 hrs by GADD45alpha-GFP assay; assay type: toxicity, cell-based; details: genm-t01, 24 h
[9] = Cytotoxic activity against human GenM-T01 cells after 48 hrs; assay type: cell-based; details: genm-t01, 48 h
[10] = test system: Salmonella typhimurium; assay: Mutagenicity in Salmonella typhimurium TAMix at 0.975 ug/mL to 1000 ug/mL after 48 hrs in presence of liver S9 fraction by Ames test; assay type: toxicity, organism-based; details: salmonella enterica subsp. enterica serovar typhimurium, s9, 48 h

SMILES | pIC50 [1] | other results
O=C(NO)c1cccc(NC(=O)c2cccc3c2C(=O)c2ccccc2-3)c1 | 4.89 | 
O=C(Nc1cccc(OC(F)(F)F)c1)c1cccc2c1C(=O)c1ccccc1-2 | 5.17 | 
COC(=O)c1cccc(NC(=O)c2cccc(-c3ccccc3)c2)c1 | 4.72 | 
COC(=O)c1cc(NC(=O)c2cccc3c2C(=O)c2ccccc2-3)ccc1O | < 4.00 | 
CSc1cccc(NC(=O)c2cccc3c2C(=O)c2ccccc2-3)c1 | 4.58 | 
COC(=O)c1cccc(NC(=O)c2cccc3c2C(=O)c2ccccc2-3)c1 | 4.96 | 
Nc1ccc(NC(=O)c2cccc3c2C(=O)c2ccccc2-3)c(C(=O)O)c1 | 4.10 | 
O=C(O)c1cccc(NC(=O)c2cccc3c2C(=O)c2ccccc2-3)c1 |  | Activity [2]: Non-toxic; Activity [3]: Non-toxic; MTC [4]: 62.5 µg/mL; MTC [5]: 62.5 µg/mL; MTC [6]: 62.5 µg/mL; Activity [7]: Non-toxic; MTC [8]: 62.5 µg/mL; MTC [9]: 62.5 µg/mL; Activity [10]: Non-toxic
O=C(O)c1cccc(NC(=O)c2cccc3c2C(=O)c2ccccc2-3)c1Cl | 5.04 | 
Nc1ccc(NC(=O)c2cccc3c2C(=O)c2ccccc2-3)cc1C(=O)O | 5.22 | 
O=C(O)c1cccc(NC(=O)c2ccccc2)c1 | < 4.00 | 
